Measurements from ChEMBL document CHEMBL1145099, “Aloisines, a new family of CDK/GSK-3 inhibitors. SAR study, crystal structure in complex with CDK2, enzyme selectivity, and cellular effects” (J Med Chem, 2003).

What was measured:
[1] = molecular target: Cyclin-dependent kinase 2/cyclin E (Homo sapiens, UniProt P24941); assay: Inhibition of Cyclin-dependent kinase 2-cyclin E; type: protein-complex assay
Casein kinase I = assay: Inhibition of Casein kinase I; type: protein assay
Casein kinase II = Casein kinase II (Homo sapiens, UniProt P19784+P67870+P68400); assay: Inhibition of Casein kinase II; type: protein-complex assay
[2] = molecular target: Cyclin-dependent kinase 2/cyclin A (Homo sapiens, UniProt P24941); assay: Inhibition of Cyclin-dependent kinase 2-cyclin A; type: protein-complex assay
[3] = molecular target: Cyclin-dependent kinase 4/cyclin D1 (Homo sapiens, UniProt P11802); assay: Inhibition of Cyclin-dependent kinase 4-cyclin D1
[4] = molecular target: Dual specificity mitogen-activated protein kinase kinase; MEK1/2 (Homo sapiens, UniProt P36507+Q02750); assay: Inhibition of Mitogen activated protein kinase kinase; type: protein assay
[5] = molecular target: Protein kinase C beta type (Homo sapiens, UniProt P05771); assay: Inhibition of Protein kinase C beta
[6] = molecular target: Protein kinase C alpha type (Homo sapiens, UniProt P17252); assay: Inhibition of protein kinase C alpha
[7] = molecular target: Protein kinase C delta type (Homo sapiens, UniProt Q05655); assay: Inhibition of protein kinase C delta
[8] = molecular target: Serine/threonine-protein kinase pim-1 (Homo sapiens, UniProt P11309); assay: Inhibition of Protein kinase PIM-1
[9] = molecular target: T1, Protein kinase C zeta type (Homo sapiens, UniProt Q05513); assay: Inhibition of protein kinase C zeta
T1 sequence (Q05513 whole entry): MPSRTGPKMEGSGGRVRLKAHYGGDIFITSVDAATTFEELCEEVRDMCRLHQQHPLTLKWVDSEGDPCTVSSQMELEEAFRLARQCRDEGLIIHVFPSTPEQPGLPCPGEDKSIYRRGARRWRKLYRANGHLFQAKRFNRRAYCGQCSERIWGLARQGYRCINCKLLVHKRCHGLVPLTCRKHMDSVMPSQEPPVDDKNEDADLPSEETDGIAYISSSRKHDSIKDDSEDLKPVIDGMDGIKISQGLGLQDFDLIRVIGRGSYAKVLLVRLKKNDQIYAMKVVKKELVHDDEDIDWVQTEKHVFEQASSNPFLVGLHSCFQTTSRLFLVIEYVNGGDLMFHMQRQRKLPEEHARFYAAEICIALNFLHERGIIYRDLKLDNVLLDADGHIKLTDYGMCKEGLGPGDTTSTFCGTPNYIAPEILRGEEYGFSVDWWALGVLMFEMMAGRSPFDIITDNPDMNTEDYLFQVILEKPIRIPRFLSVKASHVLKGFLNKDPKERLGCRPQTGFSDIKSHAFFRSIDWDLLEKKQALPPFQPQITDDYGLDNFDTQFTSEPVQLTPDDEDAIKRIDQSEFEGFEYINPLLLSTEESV

[10] = molecular target: T2, Protein kinase C epsilon type (Homo sapiens, UniProt Q02156); assay: Inhibition of protein kinase C epsilon
T2 sequence (Q02156 whole entry): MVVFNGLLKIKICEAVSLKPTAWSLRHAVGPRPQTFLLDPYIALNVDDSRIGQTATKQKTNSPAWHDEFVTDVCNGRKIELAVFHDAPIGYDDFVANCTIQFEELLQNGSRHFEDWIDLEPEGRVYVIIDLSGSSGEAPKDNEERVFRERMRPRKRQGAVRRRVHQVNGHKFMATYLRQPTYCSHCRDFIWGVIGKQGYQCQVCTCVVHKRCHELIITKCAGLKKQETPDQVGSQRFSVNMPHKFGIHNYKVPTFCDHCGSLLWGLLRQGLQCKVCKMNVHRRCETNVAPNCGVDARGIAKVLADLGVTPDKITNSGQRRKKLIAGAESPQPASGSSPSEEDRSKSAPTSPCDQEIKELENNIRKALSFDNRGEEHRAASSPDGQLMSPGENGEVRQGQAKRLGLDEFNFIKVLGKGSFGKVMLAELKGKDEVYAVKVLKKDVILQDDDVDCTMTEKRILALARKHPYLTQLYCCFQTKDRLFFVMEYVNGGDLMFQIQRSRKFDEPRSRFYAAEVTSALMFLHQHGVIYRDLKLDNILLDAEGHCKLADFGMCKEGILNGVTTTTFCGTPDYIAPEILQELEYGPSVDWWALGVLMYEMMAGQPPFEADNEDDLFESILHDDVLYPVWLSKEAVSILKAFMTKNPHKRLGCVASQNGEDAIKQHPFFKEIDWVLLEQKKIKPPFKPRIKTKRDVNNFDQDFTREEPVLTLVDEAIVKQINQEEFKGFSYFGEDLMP

[11] = molecular target: Protein kinase C gamma type (Homo sapiens, UniProt P05129); assay: Inhibition of Protein kinase C gamma
[12] = molecular target: T3, Serine/threonine-protein kinase D1 (Homo sapiens, UniProt Q15139); assay: Inhibition of Protein kinase C mu
T3 sequence (Q15139 whole entry): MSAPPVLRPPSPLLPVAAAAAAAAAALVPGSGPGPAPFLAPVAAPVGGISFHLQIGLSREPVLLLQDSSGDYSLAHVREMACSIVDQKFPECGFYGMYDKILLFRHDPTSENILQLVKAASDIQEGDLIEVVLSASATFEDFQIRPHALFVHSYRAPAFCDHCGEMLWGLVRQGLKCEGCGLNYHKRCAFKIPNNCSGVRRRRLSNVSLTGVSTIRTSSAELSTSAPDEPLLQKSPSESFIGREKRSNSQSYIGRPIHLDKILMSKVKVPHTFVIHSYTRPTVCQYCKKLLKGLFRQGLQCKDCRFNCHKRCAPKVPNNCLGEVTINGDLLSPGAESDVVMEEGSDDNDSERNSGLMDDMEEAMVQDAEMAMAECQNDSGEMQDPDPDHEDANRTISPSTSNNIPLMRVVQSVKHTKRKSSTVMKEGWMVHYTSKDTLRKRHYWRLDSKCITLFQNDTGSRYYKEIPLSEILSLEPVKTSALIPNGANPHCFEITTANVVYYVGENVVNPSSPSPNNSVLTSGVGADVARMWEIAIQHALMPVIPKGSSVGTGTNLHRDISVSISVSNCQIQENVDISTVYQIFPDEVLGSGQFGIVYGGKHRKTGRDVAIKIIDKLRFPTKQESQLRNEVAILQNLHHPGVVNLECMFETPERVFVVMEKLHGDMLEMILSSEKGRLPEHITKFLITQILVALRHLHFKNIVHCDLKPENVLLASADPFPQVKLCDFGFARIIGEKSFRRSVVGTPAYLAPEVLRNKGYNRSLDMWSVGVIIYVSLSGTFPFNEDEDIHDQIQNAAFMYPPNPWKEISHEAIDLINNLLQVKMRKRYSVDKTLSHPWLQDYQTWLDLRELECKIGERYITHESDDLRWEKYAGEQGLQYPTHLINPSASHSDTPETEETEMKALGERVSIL

[13] = molecular target: RAF proto-oncogene serine/threonine-protein kinase (Homo sapiens, UniProt P04049); assay: Inhibition of RAF proto-oncogene serine/threonine-protein kinase (c-raf)
[14] = molecular target: c-Jun N-terminal kinase, JNK (Homo sapiens, UniProt P45983+P53779+P45984); assay: Inhibition of c-Jun N-terminal kinase; type: protein assay
[15] = Inhibition of cAMP dependent protein kinase, PKA
[16] = Inhibition of cGMP-dependent protein kinase

Chain of RAF proto-oncogene serine/threonine-protein kinase (P04049 whole entry): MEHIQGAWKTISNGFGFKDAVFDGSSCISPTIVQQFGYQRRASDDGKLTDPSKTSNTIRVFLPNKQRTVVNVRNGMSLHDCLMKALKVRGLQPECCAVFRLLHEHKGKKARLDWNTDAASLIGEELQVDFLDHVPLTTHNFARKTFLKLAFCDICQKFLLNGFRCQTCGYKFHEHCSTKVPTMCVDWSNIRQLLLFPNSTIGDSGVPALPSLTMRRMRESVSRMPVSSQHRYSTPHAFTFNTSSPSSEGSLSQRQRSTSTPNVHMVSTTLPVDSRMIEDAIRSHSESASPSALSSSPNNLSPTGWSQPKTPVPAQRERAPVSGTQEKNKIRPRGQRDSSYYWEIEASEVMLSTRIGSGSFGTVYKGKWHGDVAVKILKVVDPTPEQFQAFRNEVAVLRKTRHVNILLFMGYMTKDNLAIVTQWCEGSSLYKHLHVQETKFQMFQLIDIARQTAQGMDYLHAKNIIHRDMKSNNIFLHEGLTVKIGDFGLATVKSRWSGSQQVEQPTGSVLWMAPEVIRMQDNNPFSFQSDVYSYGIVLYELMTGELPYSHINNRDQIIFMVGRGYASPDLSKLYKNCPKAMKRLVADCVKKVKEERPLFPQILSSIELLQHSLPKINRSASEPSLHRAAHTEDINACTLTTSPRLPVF
Chain of Protein kinase C beta type (P05771 whole entry): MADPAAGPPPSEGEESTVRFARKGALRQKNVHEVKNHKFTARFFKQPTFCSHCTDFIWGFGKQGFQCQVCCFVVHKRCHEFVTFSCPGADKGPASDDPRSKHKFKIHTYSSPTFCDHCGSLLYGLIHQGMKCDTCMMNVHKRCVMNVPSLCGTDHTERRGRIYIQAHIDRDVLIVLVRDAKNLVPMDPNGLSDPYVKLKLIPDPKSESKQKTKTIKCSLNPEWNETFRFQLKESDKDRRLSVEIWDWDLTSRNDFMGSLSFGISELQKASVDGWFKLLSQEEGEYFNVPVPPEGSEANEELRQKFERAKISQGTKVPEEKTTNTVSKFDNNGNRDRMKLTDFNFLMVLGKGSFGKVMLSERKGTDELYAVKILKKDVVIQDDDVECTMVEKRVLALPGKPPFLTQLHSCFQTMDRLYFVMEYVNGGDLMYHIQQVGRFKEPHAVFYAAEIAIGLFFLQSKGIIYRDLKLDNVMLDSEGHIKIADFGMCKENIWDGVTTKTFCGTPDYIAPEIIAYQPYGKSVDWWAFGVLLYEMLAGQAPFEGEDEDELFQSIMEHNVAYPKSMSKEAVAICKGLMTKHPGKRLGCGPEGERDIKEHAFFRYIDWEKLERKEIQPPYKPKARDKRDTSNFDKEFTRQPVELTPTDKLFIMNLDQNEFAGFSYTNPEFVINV
Chain of Cyclin-dependent kinase 4/cyclin D1 (P11802 whole entry): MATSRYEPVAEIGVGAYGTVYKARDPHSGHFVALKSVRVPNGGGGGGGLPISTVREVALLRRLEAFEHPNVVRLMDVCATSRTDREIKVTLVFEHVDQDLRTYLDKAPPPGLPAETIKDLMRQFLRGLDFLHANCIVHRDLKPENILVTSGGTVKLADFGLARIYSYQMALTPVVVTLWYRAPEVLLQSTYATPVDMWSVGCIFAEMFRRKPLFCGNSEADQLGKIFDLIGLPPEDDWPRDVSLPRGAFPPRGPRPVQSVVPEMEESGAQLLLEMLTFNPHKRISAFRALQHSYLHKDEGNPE
Chain of Cyclin-dependent kinase 4/cyclin D1 (P24385 whole entry, further chain): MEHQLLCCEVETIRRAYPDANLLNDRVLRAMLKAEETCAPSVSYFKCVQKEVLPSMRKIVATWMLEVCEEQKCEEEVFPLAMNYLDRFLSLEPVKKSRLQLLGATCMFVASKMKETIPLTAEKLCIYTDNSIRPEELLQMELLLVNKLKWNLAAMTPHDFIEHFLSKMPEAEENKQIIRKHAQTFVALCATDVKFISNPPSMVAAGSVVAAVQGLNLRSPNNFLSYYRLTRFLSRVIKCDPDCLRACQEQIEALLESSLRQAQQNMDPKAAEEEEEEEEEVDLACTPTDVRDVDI
Chain of Protein kinase C delta type (Q05655 whole entry): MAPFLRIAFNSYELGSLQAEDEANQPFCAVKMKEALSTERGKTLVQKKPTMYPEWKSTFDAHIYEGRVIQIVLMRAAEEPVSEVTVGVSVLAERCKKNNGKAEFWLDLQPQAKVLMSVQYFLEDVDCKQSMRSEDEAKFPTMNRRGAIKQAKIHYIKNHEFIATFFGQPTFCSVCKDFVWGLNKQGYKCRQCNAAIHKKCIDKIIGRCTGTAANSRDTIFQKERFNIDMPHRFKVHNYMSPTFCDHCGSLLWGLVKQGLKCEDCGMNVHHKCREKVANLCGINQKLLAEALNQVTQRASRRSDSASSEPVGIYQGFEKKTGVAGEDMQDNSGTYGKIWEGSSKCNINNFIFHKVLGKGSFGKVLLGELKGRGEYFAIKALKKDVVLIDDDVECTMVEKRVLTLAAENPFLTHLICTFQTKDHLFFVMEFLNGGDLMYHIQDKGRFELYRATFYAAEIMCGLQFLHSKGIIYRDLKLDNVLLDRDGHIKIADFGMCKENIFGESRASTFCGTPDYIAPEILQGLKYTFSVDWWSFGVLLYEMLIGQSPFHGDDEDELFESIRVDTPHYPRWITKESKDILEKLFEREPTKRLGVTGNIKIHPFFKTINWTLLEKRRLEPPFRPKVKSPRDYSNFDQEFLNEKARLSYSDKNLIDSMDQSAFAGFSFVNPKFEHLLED
Chain of Casein kinase II (P67870 whole entry): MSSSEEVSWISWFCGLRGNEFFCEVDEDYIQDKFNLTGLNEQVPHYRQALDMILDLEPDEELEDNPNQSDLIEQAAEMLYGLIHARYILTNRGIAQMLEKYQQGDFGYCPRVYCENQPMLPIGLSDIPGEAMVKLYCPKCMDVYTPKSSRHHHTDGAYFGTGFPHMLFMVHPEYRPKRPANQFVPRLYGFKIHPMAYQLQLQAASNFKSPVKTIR
Chain of Casein kinase II (P68400 whole entry): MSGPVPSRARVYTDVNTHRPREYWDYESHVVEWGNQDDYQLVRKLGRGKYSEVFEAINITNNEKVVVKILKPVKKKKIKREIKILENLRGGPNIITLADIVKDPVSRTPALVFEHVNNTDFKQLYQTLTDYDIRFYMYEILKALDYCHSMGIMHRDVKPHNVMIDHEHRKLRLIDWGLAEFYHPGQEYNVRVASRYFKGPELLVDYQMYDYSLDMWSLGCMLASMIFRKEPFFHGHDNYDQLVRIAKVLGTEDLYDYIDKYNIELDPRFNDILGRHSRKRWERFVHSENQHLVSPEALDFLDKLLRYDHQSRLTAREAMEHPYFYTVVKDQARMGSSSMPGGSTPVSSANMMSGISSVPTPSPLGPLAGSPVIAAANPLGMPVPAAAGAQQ
Chain of Casein kinase II (P19784 whole entry): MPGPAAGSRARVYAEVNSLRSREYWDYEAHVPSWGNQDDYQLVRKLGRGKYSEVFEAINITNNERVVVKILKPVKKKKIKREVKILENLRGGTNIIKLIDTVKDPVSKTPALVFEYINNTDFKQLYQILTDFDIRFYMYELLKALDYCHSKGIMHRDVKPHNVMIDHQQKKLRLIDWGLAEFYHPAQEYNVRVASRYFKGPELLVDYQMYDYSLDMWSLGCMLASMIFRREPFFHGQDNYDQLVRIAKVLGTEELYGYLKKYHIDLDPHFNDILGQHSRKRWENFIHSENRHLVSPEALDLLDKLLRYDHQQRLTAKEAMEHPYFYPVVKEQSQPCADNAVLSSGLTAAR

IC50 [1]: 0.4 µM
IC50 (Casein kinase I): > 100 µM
IC50 (Casein kinase II): > 100 µM
IC50 [2]: 0.12 µM
IC50 [3]: > 100 µM
IC50 [4]: > 100 µM
IC50 [5]: > 100 µM
IC50 [6]: > 100 µM
IC50 [7]: > 100 µM
IC50 [8]: > 10 µM
IC50 [9]: > 100 µM
IC50 [10]: > 100 µM
IC50 [11]: > 100 µM
IC50 [12]: > 100 µM
IC50 [13]: > 100 µM
IC50 [14]: 3.3 µM
IC50 [15]: 100 µM
IC50 [16]: 100 µM
SMILES: CCCCc1c(-c2ccc(O)cc2)[nH]c2nccnc12 [ALOISINE A]
